Results: patent US9499519B2, “Fused pyrimidine compounds and use thereof” (Medivation Technologies, Inc., priority 2012, dated 2016)
“And” between values parts separate entries of the source, which are not always exact repeats. Equal values may be shown once.

Legend:
Format in all cases: biochemical
c-Met = c-Met (Homo sapiens, UniProt P08581); test: HotSpot kinase assay: c-Met; conditions: 100 nM compound, read-out: % Enzyme Inhibition @ 100 nM c-MET
Procedure: (§1) Kinase assays were performed using additional compounds against a panel of 4 kinases: AXL; c-Met; c-Mer; and Trk C. Each compound was tested at a concentration of […] in single duplicate mode against the 4 kinases. Compounds were prepared as 10 mM stock solutions in DMSO prior to use in the assay. […] IC50 values and curve fits were obtained using Prism (GraphPad Software).
(§2) The screening was performed using the “HotSpot” assay platform. The assay measures the conversion of a peptide substrate to ^33P-labelled phosphorylated product. Briefly, specific kinase/substrate pairs along with required cofactors were prepared in reaction buffer. Specifically, the substrate was prepared in reaction buffer (20 mM Hepes, pH 7.5; 10 mM MgCl2; 1 mM EGTA; 0.02% Brij35; 0.02 mg/mL BSA; 0.1 mM Na3VO4; 2 mM DTT; 1% DMSO), followed by delivery of any required cofactor to the resulting substrate solution. The corresponding kinase was delivered into the substrate solution and the reaction mixture was mixed gently. Compound was delivered into the reaction mixture, followed 15-20 minutes later by addition of a mixture of ATP (Sigma, St. Louis Mo.) and ^33P ATP (specific activity 0.01 μCi/μL final; Perkin Elmer, Waltham, Mass.) to a final concentration of 10 μM-30 μM to initiate the reaction. […] The percent of enzyme inhibition was calculated based on the percent of remaining kinase activity.

AXL = target: T1, AXL (Homo sapiens, UniProt P30530); test: HotSpot kinase assay: AXL; conditions: 100 nM compound, read-out: % Enzyme Inhibition @ 100 nM AXL
T1 sequence (P30530 26-894): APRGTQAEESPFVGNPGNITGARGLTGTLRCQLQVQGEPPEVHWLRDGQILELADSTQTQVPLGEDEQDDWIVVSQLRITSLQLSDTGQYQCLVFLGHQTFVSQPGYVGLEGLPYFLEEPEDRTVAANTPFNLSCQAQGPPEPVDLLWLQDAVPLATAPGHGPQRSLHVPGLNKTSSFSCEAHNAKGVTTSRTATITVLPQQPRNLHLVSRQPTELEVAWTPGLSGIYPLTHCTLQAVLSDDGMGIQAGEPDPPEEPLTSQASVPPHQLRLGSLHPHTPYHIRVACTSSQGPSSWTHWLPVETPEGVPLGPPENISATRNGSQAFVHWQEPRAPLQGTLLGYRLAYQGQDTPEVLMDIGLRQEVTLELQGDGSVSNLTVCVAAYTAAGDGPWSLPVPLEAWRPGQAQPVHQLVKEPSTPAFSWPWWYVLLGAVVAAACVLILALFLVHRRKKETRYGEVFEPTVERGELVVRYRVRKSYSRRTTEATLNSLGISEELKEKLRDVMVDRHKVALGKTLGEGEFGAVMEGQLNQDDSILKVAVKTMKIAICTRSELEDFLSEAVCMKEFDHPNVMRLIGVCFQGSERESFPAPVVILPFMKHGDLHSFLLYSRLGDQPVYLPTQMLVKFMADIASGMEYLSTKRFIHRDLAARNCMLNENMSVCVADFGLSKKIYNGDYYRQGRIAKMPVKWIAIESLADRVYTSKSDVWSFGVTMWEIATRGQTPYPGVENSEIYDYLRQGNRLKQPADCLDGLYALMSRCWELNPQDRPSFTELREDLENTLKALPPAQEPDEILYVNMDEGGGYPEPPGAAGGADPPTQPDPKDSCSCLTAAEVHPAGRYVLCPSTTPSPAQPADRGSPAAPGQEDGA
Procedure: as §1, §2

Trk B = Trk B (Homo sapiens, UniProt Q16620); test: HotSpot kinase assay: Trk B; conditions: 100 nM compound, read-out: % Enzyme Inhibition @ 100 nM Trk B
Sequence of Trk B (Q16620 32-822): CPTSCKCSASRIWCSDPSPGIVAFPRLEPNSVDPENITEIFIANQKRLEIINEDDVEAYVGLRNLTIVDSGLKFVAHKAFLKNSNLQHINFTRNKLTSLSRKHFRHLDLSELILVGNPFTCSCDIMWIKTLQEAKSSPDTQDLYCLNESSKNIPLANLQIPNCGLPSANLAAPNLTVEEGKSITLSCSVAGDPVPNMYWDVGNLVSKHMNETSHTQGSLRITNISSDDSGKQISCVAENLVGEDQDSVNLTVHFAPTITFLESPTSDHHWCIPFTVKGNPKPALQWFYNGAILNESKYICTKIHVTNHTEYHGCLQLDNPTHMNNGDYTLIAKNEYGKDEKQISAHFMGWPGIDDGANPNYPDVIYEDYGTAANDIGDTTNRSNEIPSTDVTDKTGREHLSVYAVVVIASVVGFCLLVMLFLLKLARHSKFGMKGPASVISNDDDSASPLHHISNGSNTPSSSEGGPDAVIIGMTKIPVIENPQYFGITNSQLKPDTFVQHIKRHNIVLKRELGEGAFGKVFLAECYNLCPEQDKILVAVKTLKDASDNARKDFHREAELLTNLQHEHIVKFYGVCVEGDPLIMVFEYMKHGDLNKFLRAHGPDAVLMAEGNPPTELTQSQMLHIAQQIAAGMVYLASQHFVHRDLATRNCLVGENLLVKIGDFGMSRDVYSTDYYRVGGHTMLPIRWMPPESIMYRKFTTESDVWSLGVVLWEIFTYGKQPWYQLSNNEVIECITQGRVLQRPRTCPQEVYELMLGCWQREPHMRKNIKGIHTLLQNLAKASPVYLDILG
Procedure: Each compound was tested at a concentration of 0.1 μM in single duplicate mode against the 3 kinases. Compounds were prepared as 10 mM stock solutions in DMSO prior to use in the assay. […] IC50 values and curve fits were obtained using Prism (GraphPad Software).
as §2

IR = target: T2, IR (Homo sapiens, UniProt P06213); test: In vitro IR enzymatic assay (ADP-Glo kinase assay); conditions: activated IR
T2 construct: purchased Millipore 14-803
T2 sequence (P06213 28-1382): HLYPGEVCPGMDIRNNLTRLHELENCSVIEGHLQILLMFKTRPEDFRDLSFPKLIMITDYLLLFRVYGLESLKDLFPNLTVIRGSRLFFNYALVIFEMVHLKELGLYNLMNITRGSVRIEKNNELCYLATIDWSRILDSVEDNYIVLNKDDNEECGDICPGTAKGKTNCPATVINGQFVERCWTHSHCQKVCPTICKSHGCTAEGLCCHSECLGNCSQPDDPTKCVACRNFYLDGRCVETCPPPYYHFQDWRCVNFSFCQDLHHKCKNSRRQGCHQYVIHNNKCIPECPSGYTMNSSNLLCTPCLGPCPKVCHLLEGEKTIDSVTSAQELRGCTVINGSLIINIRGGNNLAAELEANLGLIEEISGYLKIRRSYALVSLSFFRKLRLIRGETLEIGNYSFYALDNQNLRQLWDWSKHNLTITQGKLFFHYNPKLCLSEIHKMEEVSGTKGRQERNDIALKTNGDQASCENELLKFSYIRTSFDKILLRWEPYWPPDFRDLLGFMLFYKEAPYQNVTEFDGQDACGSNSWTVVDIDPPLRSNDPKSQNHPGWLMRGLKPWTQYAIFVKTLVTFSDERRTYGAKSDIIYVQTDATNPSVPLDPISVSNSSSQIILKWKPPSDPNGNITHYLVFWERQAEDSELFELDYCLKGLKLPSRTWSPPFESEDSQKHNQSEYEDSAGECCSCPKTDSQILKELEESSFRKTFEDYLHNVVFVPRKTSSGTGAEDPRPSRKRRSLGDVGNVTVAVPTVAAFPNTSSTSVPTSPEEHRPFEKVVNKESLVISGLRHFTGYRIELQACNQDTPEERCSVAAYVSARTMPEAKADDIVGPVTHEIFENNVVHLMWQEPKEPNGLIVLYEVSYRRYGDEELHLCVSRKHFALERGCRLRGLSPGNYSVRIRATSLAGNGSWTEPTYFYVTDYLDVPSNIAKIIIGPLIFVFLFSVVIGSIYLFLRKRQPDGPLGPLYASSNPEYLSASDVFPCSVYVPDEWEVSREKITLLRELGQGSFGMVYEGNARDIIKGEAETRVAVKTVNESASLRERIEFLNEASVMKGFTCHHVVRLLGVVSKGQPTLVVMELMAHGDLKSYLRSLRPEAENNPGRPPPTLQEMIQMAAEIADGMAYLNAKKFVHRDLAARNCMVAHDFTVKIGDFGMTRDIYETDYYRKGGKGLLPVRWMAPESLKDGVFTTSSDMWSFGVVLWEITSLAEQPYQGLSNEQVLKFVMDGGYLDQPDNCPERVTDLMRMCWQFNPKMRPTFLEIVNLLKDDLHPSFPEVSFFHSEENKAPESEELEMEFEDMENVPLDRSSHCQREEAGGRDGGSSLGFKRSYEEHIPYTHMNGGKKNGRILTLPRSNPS
Procedure: IC50 values of the compounds of the invention against IGF-1R and IR were measured in vitro using an ADP-Glo kinase assay Kit (Promega). […] Kinase reactions in both assays were conducted at 30° C. for 20 min with increasing concentrations of compounds of the invention.
Additional compounds of the invention were screened against activated IR.

Sequence of c-Met (P08581 25-1390): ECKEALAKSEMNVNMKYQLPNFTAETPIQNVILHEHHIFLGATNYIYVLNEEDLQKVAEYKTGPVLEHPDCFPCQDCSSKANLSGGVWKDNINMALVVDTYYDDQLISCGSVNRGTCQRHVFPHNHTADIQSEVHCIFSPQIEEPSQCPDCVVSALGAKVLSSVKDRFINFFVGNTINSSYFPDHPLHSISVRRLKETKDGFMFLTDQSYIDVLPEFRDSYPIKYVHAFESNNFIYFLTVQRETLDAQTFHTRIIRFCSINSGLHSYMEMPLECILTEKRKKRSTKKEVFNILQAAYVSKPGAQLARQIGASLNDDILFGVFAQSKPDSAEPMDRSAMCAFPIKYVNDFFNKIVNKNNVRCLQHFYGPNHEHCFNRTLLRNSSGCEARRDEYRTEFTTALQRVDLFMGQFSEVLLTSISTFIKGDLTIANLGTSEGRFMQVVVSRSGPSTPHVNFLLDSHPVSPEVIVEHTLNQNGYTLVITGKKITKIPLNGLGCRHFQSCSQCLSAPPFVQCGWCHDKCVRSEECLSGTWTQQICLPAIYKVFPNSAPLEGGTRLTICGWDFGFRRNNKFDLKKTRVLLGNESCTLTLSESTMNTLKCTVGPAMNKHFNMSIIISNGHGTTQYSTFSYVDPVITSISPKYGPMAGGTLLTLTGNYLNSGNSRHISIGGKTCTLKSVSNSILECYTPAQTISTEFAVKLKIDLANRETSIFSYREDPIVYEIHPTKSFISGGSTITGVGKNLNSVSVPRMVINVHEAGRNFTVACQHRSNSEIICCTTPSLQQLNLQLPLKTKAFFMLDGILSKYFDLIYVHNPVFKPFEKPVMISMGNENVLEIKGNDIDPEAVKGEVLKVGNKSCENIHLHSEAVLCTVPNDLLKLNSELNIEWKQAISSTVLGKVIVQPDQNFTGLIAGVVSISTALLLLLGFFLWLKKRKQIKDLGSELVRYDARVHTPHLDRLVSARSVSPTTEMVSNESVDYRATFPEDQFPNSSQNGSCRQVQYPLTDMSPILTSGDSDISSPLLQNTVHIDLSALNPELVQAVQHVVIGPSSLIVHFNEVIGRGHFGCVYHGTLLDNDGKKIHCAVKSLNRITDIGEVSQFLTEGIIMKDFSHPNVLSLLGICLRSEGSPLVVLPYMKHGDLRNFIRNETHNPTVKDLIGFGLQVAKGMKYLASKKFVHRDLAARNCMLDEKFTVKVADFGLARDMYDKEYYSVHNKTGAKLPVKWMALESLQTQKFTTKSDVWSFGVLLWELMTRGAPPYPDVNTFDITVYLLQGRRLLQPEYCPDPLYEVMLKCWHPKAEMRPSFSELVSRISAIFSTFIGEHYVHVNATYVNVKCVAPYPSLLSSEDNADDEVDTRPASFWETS

CC(C)c1cc(Nc2nc(N3CCCC3C(=O)N(C)C)nc3c2CCC3)n[nH]1 (single isomer, unassigned) [Compound 20b, 1-(4-(5-isopropyl-1H-pyrazol-3-ylamino)-6,7-dihydro-5H-cyclopenta[d]pyrimidin-2-yl)-N,N-dimethylpyrrolidine-2-carboxamide]
inhibition at 0.1 µM (c-Met): < 39% | inhibition at 0.1 µM (AXL): < 39% | inhibition at 0.1 µM (Trk B): < 39% | IC50 (IR): 1800 nM and 1700 nM
